Results taken from article PMC10692723 (The Journal of Biological Chemistry, 2023).
Positions count from the first letter of the chain named. Names and notes keep the numbering of the source. Ends that are not written are not given here. * marks the point of attachment. FITC = O=C1OC2(c3ccc(O)cc3Oc3cc(O)ccc32)c2ccc(NC(=S)*)cc21

B1: MSN FERM domain (1-345) H288A, untagged (domain or fragment)
chain: MPKTISVRVTTMDAELEFAIQPNTTGKQLFDQVVKTIGLREVWFFGLQYQDTKGFSTWLKLNKKVTAQDVRKESPLLFKFRAKFYPEDVSEELIQDITQRLFFLQVKEGILNDDIYCPPETAVLLASYAVQSKYGDFNKEVHKSGYLAGDKLLPQRVLEQHKLNKDQWEERIQVWHEEHRGMLREDAVLEYLKIAQDLEMYGVNYFSIKNKKGSELWLGVDALGLNIYEQNDRLTPKIGFPWSEIRNISFNDKKFVIKPIDKKAPDFVFYAPRLRINKRILALCMGNAELYMRRRKPDTIEVQQMKAQAREEKHQKQMERAMLENEKKKREMAEKEKEKIEREKE
B2: MSN FERM domain (1-345) L281R, untagged (domain or fragment)
chain: B1 chain with L281R, A288H
B3: FITC-conjugated CD44 peptide (SRRRCGQKKKLVINSGNGAVEDYK-FITC) (peptide)
peptide: SRRRCGQKKKLVINSGNGAVEDYK(FITC)

Experiments:
[1] = molecular target: GST-MSN and Venus-Flag-CD44 (Homo sapiens, UniProt P26038); test: GST pull-down assay in cell lysates; format: binding; conditions: full-length GST-MSN and Flag-CD44
MSN–CD44 interaction = MSN–CD44 interaction (Homo sapiens, UniProt P26038); test: MSN–CD44 TR-FRET assay; format: binding; conditions: for increase in potency relative to compound 2: MSN–CD44 TR-FRET
[2] = Solubility by nephelometry; conditions: aqueous / PBS buffer
[3] = molecular target: B3; test: FRET or BRET
[4] = molecular target: T1, 6His-tagged MSN FERM domain (residues 1-345), wild type (human, UniProt P26038 1-345); test: FRET or BRET
[5] = molecular target: T1, 6His-tagged MSN FERM domain (residues …); test: FRET or BRET; remark: listed apart in the source
[6] = molecular target: T1, 6His-tagged MSN FERM domain (residues …); test: FRET or BRET; remark: listed apart in the source
[7] = molecular target: MSN FERM domain (residues 1-345), wild type, 6His tag cleaved (human, UniProt P26038 1-345); test: FRET or BRET

Sequence of MSN–CD44 interaction (P26038 1-345): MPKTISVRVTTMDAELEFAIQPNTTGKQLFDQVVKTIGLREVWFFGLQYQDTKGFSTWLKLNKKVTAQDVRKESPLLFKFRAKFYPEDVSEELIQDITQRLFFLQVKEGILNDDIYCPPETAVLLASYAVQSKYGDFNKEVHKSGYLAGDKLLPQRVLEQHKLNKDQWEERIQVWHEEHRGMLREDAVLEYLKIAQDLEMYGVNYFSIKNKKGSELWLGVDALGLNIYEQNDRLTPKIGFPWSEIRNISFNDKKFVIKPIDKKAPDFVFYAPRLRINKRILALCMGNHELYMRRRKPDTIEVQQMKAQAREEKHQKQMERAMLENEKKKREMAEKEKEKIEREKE
Sequence of GST-MSN and Venus-Flag-CD44 (P26038 whole entry): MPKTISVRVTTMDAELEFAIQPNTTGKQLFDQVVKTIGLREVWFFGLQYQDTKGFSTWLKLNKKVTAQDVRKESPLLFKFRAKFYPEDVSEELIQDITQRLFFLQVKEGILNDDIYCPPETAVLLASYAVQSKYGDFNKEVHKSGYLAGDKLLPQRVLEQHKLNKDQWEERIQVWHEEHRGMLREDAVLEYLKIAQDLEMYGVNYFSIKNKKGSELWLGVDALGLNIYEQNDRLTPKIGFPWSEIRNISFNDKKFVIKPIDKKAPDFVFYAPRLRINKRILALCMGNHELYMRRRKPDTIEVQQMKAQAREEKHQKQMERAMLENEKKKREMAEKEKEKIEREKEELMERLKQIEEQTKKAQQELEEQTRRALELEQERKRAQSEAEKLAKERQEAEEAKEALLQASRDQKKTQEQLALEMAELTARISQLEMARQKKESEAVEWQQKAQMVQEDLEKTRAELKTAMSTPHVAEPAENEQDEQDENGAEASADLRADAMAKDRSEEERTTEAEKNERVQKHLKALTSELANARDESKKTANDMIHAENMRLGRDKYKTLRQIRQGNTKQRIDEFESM

Molecule | effect on MSN–CD44 interaction in GST pull-down assay [1] | h (hill slope) of MSN–CD44 TR-FRET dose response (MSN–CD44 interaction) | solubility [2] | further results
Nc1ccc(C(=O)Nc2ccc(-c3nc4ccc(NC(=O)c5ccc(N)cc5)cc4s3)cc2)cc1.O=C(O)C(F)(F)F.O=C(O)C(F)(F)F [Compound 1, 4-amino-N-(4-(6-(4-aminobenzamido)benzo[d]thiazol-2-yl)phenyl)benzamide bis(2,2,2-trifluoroacetate)] | induce the dissociation of CD44 from MSN | 1.7 | – | –
COc1ccccc1C(=O)Nc1ccc(-c2nc3ccccc3[nH]2)cc1 [Compound 2, N-(4-(1H-benzo[d]imidazol-2-yl)phenyl)-2-methoxybenzamide] | induce the dissociation of CD44 from MSN | 15.8 | low solubility | –
COc1ccc(C(=O)Nc2ccc(-c3nc4ccccc4[nH]3)cc2)c(OC)c1 [Compound 2a, N-(4-(1H-benzo[d]imidazol-2-yl)phenyl)-2,4-dimethoxybenzamide] | able to inhibit the MSN–CD44 interaction | 2.4 | improved solubility | increase in potency relative to compound 2 (MSN–CD44 interaction): approximately 2 fold
O=C(Nc1ccc(-c2nc3ccccc3[nH]2)cc1)c1cccc(Cl)c1 [Compound 2b, N-(4-(1H-benzo[d]imidazol-2-yl)phenyl)-3-chlorobenzamide] | able to inhibit the MSN–CD44 interaction | 2.3 | improved solubility | increase in potency relative to compound 2 (MSN–CD44 interaction): approximately 2 fold
B1 | – | – | – | fold higher concentration needed to inhibit, against WT MSN [3]: 10 fold
B2 | – | – | – | fold higher concentration needed to inhibit, against WT MSN [3]: 10 fold
EDGGSSWEYIWTLPSG [C3S1-pd peptide] | – | – | – | EC50 [4]: ~130 nM; IC50 [5]: ~220 nM
B3 | – | – | – | binding result [6]: binds; binding result [7]: binds
